Source: patent US20040116513A1, “Method to alter the isomeric profile of trans fatty acid in ruminant meat and milk and to increase the concentration of $I(cis)-11 conjugated linoleic acid” (priority 2000, published 2004)

Experiments:
[1] = test system: multiparous Holstein cows; assay: Animal study of dietary addition of vitamin E to an oilseed diet: milk production and milk fatty acid profile; type: in vivo, cow; conditions: result in words
Experimental: The effect of Vitamin E addition in the diet on milk fat depression as well as on the biohydrogenation shift from trans-11 to trans-10 fatty acids classically observed upon feeding of high doses of unsaturated fatty acids, was tested in vivo with six multiparous Holstein cows that yielded more than 25 kg milk/d.
A Latin square experimental design consisting of three groups of two cows, three periods of four weeks and three diets (control, oilseed and oilseed+tocopheryl-acetate) was followed. For all groups, the mixed basal diet consisted, in dry matter terms, of 30% grass silage, 46% corn silage, 13% dried sugar beet pulp, 10% soybean meal and 1% mineral & vitamin mixture. The oilseed concentrate consisted of 50% barley, 25% rapeseed and 25% linseed, whereas its control counterpart was made of 50% barley, 25% rapeseed meal and 25% linseed meal.
The amounts of oilseeds concentrate offered were calculated to provide approximately 550 g/d of supplemental lipids. In addition, cows fed oilseed diet plus Vitamin E received 9600 IU of the vitamin per day, together with the oilseed concentrate.
Milk weights were automatically recorded daily at each milking. Milk samples were taken during the last week of each period and analysed for crude protein, fat and fatty acid profile. Quantification of the trans-C18:1 and CLA isomers was performed by gas chromatography as described in Griinari et al. (1998).

lactating dairy cow = assay: Vitamin E tolerated dose extrapolated to lactating dairy cow; type: in vivo; conditions: 500 kg lactating dairy cow, extrapolated from chicks
Text: Vitamin E has a toxic effect only at very high dosages. In growing chicks, daily intake of 1000 IU/kg of body weight is without negative effects. Corresponding dietary dose in a 500 kg lactating dairy cow would be 500 000 IU/d which far exceeds the effective dose range in this invention as described before.

growing chicks = conditions: cited from earlier work

CC(=O)Oc1c(C)c(C)c2c(c1C)CCC(C)(CCC[C@H](C)CCC[C@H](C)CCCC(C)C)O2 (mixture of isomers) [vitamin E, all-rac-α-tocopheryl acetate]
CLA content (cis-9, trans-11 C18:2) of milk fat [1]: increased CLA content dramatically
level of trans-10 C18:1 in milk fat [1]: decreased to control levels
level of trans-11 C18:1 in milk fat [1]: increased significantly
levels of C4:0 to C16:0 saturated fatty acids in milk [1]: no major impact
levels of stearic acid (C18:0) in milk [1]: no major impact
milk fat yield [1]: complete recovery
shift in the ruminal biohydrogenation process (trans-11 to trans-10) [1]: completely abolished
total monounsaturated C18 (C18:1) fatty acids in milk [1]: no major impact
corresponding dietary dose without negative effects (lactating dairy cow): 500 000 IU/d
daily intake without negative effects (growing chicks): 1000 IU/kg of body weight
